Data on 15 compounds can be found in patent US6242494A, “Substituted β-amino acid inhibitors of methionine aminopeptidase-2” (Abbott Laboratories, priority 1999, dated 2001).

Where a name gives a salt, the structure may show the parent alone.

One test concerns angiogenesis. The settings on record: cited from earlier work; for inhibition of angiogenesis: result in words.
The subject of a further test is endothelial cell cycle. The settings on record: late G1 phase; result in words; cited from earlier work.
For another test, the system named is MetAP2. The note with it: result in words; cited from earlier work.
In test [1] the test system is type 2 methionine aminopeptidase, MetAP2. The settings on record: result in words; cited from earlier work.
Test [2] concerns the target T1, methionine aminopeptidase-2 (MetAP2) (Homo sapiens, UniProt P50579).
T1 construct: made in house; host or cells: insect cells, baculovirus system (secreted, purified from culture supernatant)
Kind of test: Inhibition of MetAP2 enzyme activity (96-well, Met-Ala-Ser substrate, L-amino acid oxidase/peroxidase/ortho-dianisidine, 450 nm). Format: biochemical. The note with it: IC50, recombinant MetAP2 4 μg/mL, pH 7.4, Met-Ala-Ser substrate, 20 minutes.

T1 sequence (P50579 whole entry): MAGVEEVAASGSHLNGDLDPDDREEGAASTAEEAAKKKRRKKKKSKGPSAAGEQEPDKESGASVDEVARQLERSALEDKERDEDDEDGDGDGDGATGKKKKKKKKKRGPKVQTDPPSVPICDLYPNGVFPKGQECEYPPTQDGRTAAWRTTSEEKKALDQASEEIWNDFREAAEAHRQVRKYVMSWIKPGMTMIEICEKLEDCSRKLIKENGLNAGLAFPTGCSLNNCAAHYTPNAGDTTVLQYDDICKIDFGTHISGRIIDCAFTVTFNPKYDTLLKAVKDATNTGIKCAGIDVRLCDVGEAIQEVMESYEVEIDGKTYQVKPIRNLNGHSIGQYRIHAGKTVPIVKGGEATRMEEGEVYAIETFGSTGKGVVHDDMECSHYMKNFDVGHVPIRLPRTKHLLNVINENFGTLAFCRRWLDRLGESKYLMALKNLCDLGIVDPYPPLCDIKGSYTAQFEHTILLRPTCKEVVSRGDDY

Turning to `CO[C@@H]1[C@H](OC(=O)/C=C/C=C/C=C/C=C/C(=O)O)CC[C@]2(CO2)[C@H]1[C@@]1(C)O[C@@H]1CC=C(C)C` [fumagillin], the inhibition of angiogenesis entry with angiogenesis is “potent inhibitors of angiogenesis”. In addition, the “inhibition of neovascularization by arresting the endothelial cell cycle” value in the test with endothelial cell cycle is on record as “effective in inhibiting neovacularization by arresting the endothelial cell cycle in the late G1 phase”. Further, the “mode of MetAP2 inhibition” value in the test on MetAP2 is given as “irreversible inhibitors”.

For the compound `CO[C@@H]1[C@H](OC(=O)NC(=O)CCl)CC[C@]2(CO2)[C@H]1[C@@]1(C)O[C@@H]1CC=C(C)C` [TNP-470, O-(chloroacetylcarbamoyl)fumagillol], in the test with angiogenesis (more potent than fumagillin), the “potency as angiogenesis inhibitor relative to natural precursor fumagillin” value is 50 fold. In the test with angiogenesis, the inhibition of angiogenesis result is on record as “potent inhibitors of angiogenesis”. In test [1], the “binding to MetAP2” value is “bind to a common bifunctional protein, type 2 methionine aminopeptidase, MetAP2”. The “inhibition of neovascularization by arresting the endothelial cell cycle” value in the test on endothelial cell cycle is “effective in inhibiting neovacularization by arresting the endothelial cell cycle in the late G1 phase”. The “mode of MetAP2 inhibition” value in the test with MetAP2 was “irreversible inhibitors”.

As to `COc1ccc([N+](=O)[O-])cc1NC(=O)C(O)[C@H](N)CC1CCCCC1` (mixture of isomers) [Example 160, (2RS,3R)-3-amino-4-cyclohexyl-2-hydroxy-N-(2-methoxy-5-nitrophenyl)butanamide hydrochloride], in test [2], the IC50 (in general, the concentration needed to halve the response being measured) was found to be 900 nM. Turning to `CSCC[C@@H](N)C(O)C(=O)NCCc1ccncc1` (mixture of isomers) [Example 19, (2RS,3R)-N-(2-(4-pyridyl)ethyl)-3-amino-2-hydroxy-5-(methylthio)pentanamide], the IC50 in test [2] came out at 1600 nM.

In the case of `Cc1ccccc1NC(=O)C(O)[C@H](N)CC1CCCCC1` (mixture of isomers) [Example 171, (2RS,3R)-3-amino-4-cyclohexyl-2-hydroxy-N-(2-methylphenyl)butanamide hydrochloride], the half-inhibitory concentration (IC50) in test [2] came out at 950 nM. For `N[C@H](CC1CCCCC1)C(O)C(=O)NCc1cccc(Cl)c1` (mixture of isomers) [Example 188, (2RS,3R)-3-amino-N-(3-chlorobenzyl)-4-cyclohexyl-2-hydroxybutanamide hydrochloride], in test [2], the IC50 is 1600 nM. For the compound `N[C@H](Cc1ccccc1)C(O)C(=O)NCCCCc1ccccc1` (mixture of isomers) [Example 22, (2RS,3R)-N-(4-phenylbutyl)-3-amino-2-hydroxy-4-phenyl-butanamide hydrochloride], in test [2], the IC50 was 3400 nM. Regarding `COc1cc(Cl)c(C)cc1NC(=O)C(O)[C@H](N)CC1CCCCC1` (mixture of isomers) [Example 176, (2RS,3R)-3-amino-N-(4-chloro-2-methoxy-5-methylphenyl)-4-cyclohexyl-2-hydroxybutanamide hydrochloride], the IC50 in test [2] came out at 3400 nM.

For `N[C@H](CC1CCCCC1)C(O)C(=O)NC1CCCCCC1` (mixture of isomers) [Example 204, (2RS,3R)-3-amino-N-cycloheptyl-4-cyclohexyl-2-hydroxybutanamide Hydrochloride], in test [2], the IC50 was 3800 nM. On to `N[C@H](CC1CCCCC1)C(O)C(=O)NCC1CCCCC1` (mixture of isomers) [Example 205, (2RS,3R)-3-amino-4-cyclohexyl-N-(cyclohexylmethyl)-2-hydroxybutanamide Hydrochloride], for which the IC50 in test [2] came to 2500 nM. Consider `N[C@H](CC1CCCCC1)C(O)C(=O)NCc1ccccc1C(F)(F)F` (mixture of isomers) [Example 238, (2RS,3R)-3-amino-4-cyclohexyl-2-hydroxy-N-(2-(trifluoromethyl)benzyl)butanamide], for which, in test [2], the IC50 was 2700 nM.

As to `N[C@H](CC1CCCCC1)C(O)C(=O)N[C@H]1C[C@@H]1c1ccccc1` (mixture of isomers) [Example 229, (2RS,3R)-3-amino-4-cyclohexyl-2-hydroxy-N-((1S,2R)-2-phenylcyclopropyl)butanamide Hydrochloride], the IC50 in test [2] came out at 1200 nM. As to `N[C@H](CC1CCCCC1)C(O)C(=O)Nc1ccc(F)cc1` (mixture of isomers) [Example 144, (2RS,3R)-3-amino-4-cyclohexyl-N-(4-fluorophenyl)-2-hydroxybutanamide], the IC50 in test [2] worked out at 2100 nM. On to `CN(C)c1cccc2c(S(=O)(=O)NCCCCCNC(=O)C(O)[C@H](N)CC3CCCCC3)cccc12` (stereo partly drawn) [Example 55, (2RS,3R) N-(monodansylcadaverenyl-3-amino-2-hydroxy-4-cyclohexyl)butanamidedihydrochloride], for which, in test [2], the IC50 was determined as 2700 nM.

As for `CCOc1ccccc1NC(=O)C(O)[C@H](N)CC1CCCCC1` (mixture of isomers) [Example 175, (2RS,3R)-3-amino-4-cyclohexyl-N-(2-ethoxyphenyl)-2-hydroxybutanamide hydrochloride], the IC50 in test [2] was determined as 2100 nM.
